Values quoted from earlier work in patent US12048727B2, “Synergistic formulation against acne and a process for the preparation thereof” (COUNCIL OF SCIENTIFIC & INDUSTRIAL RESEARCH, priority 2019, dated 2024).

Test system: P. acnes strains
Conditions: Indian population

SMILES	resistance of antibiotics [%]
CC[C@H]1OC(=O)[C@H](C)[C@@H](O[C@H]2C[C@@](C)(OC)[C@@H](O)[C@H](C)O2)[C@H](C)[C@@H](O[C@@H]2O[C@H](C)C[C@H](N(C)C)[C@H]2O)[C@](C)(O)C[C@@H](C)CN(C)[C@H](C)[C@@H](O)[C@]1(C)O [azithromycin]	100
CC[C@H]1OC(=O)[C@H](C)[C@@H](O[C@H]2C[C@@](C)(OC)[C@@H](O)[C@H](C)O2)[C@H](C)[C@@H](O[C@@H]2O[C@H](C)C[C@H](N(C)C)[C@H]2O)[C@](C)(O)C[C@@H](C)C(=O)[C@H](C)[C@@H](O)[C@]1(C)O [erythromycin]	98
